Assay results from patent US7273856B2, “Linear basic compounds having NK-2 antagonist activity and formulations thereof” (Menarini Ricerche S.P.A., priority 2001, dated 2007).
Several values for one entry are separate records, joined by “and”; a condition that tells them apart may be missing. Equal entries are not always repeated. Structures can show the parent of a compound that is named as a salt.

target: T1, human NK-2 receptor (Homo sapiens, UniProt P21452); experiment: binding test, affinity for the human NK-2 receptor, competition with [125I]NKA on transfected CHO cell membranes; conditions: CHO cell membranes transfected with NK-2 receptor of human ileum; [125I]NKA 100 pM; 30 min, 20° C.
T1 construct: expressed in transfected cells; host or cells: CHO (Chinese hamster ovary) cells, membranes
T1 sequence (P21452 1-398): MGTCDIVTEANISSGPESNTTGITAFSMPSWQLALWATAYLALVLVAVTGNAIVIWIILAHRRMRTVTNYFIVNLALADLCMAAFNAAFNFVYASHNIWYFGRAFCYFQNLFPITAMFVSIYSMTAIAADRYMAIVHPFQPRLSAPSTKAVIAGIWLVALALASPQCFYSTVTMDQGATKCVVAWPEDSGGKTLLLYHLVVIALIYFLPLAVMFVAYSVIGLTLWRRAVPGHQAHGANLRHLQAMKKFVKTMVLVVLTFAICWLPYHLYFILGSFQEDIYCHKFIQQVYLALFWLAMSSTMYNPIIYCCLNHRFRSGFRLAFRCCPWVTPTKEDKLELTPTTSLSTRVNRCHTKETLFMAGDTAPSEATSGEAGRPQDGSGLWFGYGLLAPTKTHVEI
Method: The evaluation of the antagonist activity on NK-2 receptors has been assessed by binding and functional tests according to that already described in literature in relation to NK-2 antagonists.
The test substances have been tested within a concentration range from 0.01 nM to 10 nM. At the end of the incubation time (30 min, 20° C.) the samples have been filtered and radioactivity has been determined using a gamma-counter.

Ki | pKi | Compound
1000 pM |  | N#CCN1CCN(C(=O)CCNC(=O)[C@@H](Cc2ccccc2)NC(=O)C2(NC(=O)c3cc4ccccc4s3)CCCC2)CC1 [Example 65, Benzo[b]thiophene-2-carboxylic acid (1-{1(R)-[3-(4-cyanomethyl-piperazin-1-yl)-3-oxo-propylcarbamoyl]-2-phenyl-ethylcarbamoyl}-cyclopentyl)-amide]
1260 pM |  | O=C(NC1(C(=O)N[C@H](Cc2ccccc2)C(=O)NC2CCN(CCC3CCOCC3)CC2)CCCC1)c1cc2ccccc2s1 [Example 68, Benzo[b]thiophene-2-carboxylic acid [1-(2-phenyl-1(R)-{1-[2-(tetrahydro-pyran-4-yl)-ethyl]-piperidin-4-ylcarbamoyl}-ethylcarbamoyl)-cyclopentyl]-amide TFA salt]
1580 pM |  | CC(C)N1CCC(CNC(=O)[C@@H](Cc2ccccc2)NC(=O)C2(NC(=O)c3cc4ccccc4s3)CCCC2)CC1 [Example 70, Benzo[b]thiophene-2-carboxylic acid (1-{1-(R)-[(1-isopropyl-piperidin-4-ylmethyl)-carbamoyl]-2-phenyl-ethylcarbamoyl}-cyclopentyl)-amide]
 | 10.0 | O=C(NC1(C(=O)N[C@H](Cc2ccccc2)C(=O)NCC2CCN(CC3CCOCC3)CC2)CCCC1)c1ccc2cc(Br)ccc2c1 [Example 72, 6-Bromo-naphthalene-2-carboxylic acid [1-(2-phenyl-1(R)-{[-(tetrahydro-pyran-4-ylmethyl)-piperidin-4-ylmethyl]-carbamoyl}-ethylcarbamoyl)-cyclopentyl]-amide]
1000 pM |  | CCN1CCC(CNC(=O)[C@@H](Cc2ccccc2)NC(=O)C2(NC(=O)c3ccc4cc(Br)ccc4c3)CCCC2)CC1 [Example 76, 6-Bromo-naphthalene-2-carboxylic acid (1-{1(R)-[(1-ethyl-piperidin-4-ylmethyl)-carbamoyl]-2-phenyl-ethylcarbamoyl}-cyclopentyl)-amide]
1000 pM |  | O=C(NC1(C(=O)N[C@H](Cc2ccccc2)C(=O)NCC2CCN(CCC3CCOCC3)CC2)CCCC1)c1cc2ccccc2s1 [Example 78, Benzo[b]thiophene-2-carboxylic acid {1-[2-phenyl-1(R)-({1-[2-(tetrahydro-pyran-4-yl)-ethyl]-piperidin-4-ylmethyl}-carbamoyl)-ethylcarbamoyl]-cyclopentyl}-amide]
63.1 pM |  | O=C(NC1(C(=O)N[C@H](Cc2ccccc2)C(=O)NCC2CCN(CC3CCCCC3)CC2)CCCC1)c1cc2ccccc2s1 [Example 79, Benzo[b]thiophene-2-carboxylic acid (1-{1(R)-[(1-cyclohexylmethyl-piperidin-4 ylmethyl)-carbamoyl]-2-phenyl-ethylcarbamoyl}-cyclopentyl)-amide]
251 pM |  | O=C(NC1(C(=O)N[C@H](Cc2ccccc2)C(=O)NCC2CCN(C3CCOCC3)CC2)CCCC1)c1ccc2cc(Br)ccc2c1 [Example 80, 6-Bromo-naphthalene-2-carboxylic acid [1-(2-phenyl-1(R)-{[1-(tetrahydro-pyran-4-yl)-piperidin-4-ylmethyl]-carbamoyl}-ethylcarbamoyl)-cyclopentyl]-amide]
79.4 pM |  | O=C(NC1(C(=O)N[C@H](Cc2ccccc2)C(=O)NCC2CCN(C3CCSCC3)CC2)CCCC1)c1cc2ccccc2s1 [Example 81, Benzo[b]thiophene-2-carboxylic acid [1-(2-phenyl-1(R)-{[1-(tetrahydro-thiopyran-4-yl)-piperidin-4-ylmethyl]-carbamoyl}-ethylcarbamoyl)-cyclopentyl]-amide TFA salt]
100 pM |  | O=C(NC1(C(=O)N[C@H](Cc2ccccc2)C(=O)NCC2CCN(CC3CCSCC3)CC2)CCCC1)c1cc2ccccc2s1 [Example 82, Benzo[b]thiophene-2-carboxylic acid [1-(2-phenyl-1(R)-{[1-(tetrahydro-thiopyran-4-ylmethyl)-piperidin-4-ylmethyl]-carbamoyl}-ethylcarbamoyl)cyclopentyl]-amide]
316 pM |  | O=C(NC1(C(=O)N[C@H](Cc2ccccc2)C(=O)NCCC2CCN(C[C@@H]3CCCN3)CC2)CCCC1)c1ccc2cc(Br)ccc2c1 [Example 84, 6-Bromo-naphthalene-2-carboxylic acid (1-{2-phenyl-1(R)-[2-(1-pyrrolidin-2(S)-ylmethyl-piperidin-4-yl)ethylcarbamoyl]-ethylcarbamoyl}-cyclopentyl)amide TFA salt]
1260 pM |  | N#CCN1CCC(CCNC(=O)[C@@H](Cc2ccccc2)NC(=O)C2(NC(=O)c3cc4ccccc4s3)CCCC2)CC1 [Example 87, Benzo[b]thiophene-2-carboxylic acid (1-{1(R)-[2-(1-cyanomethyl-piperidin-4-yl)-ethylcarbamoyl]-2-phenyl-ethylcarbamoyl}-cyclopentyl)-amide TFA salt]
794 pM |  | O=C(NC1(C(=O)N[C@H](Cc2ccccc2)C(=O)NCC2CCN(CC3COCOC3)CC2)CCCC1)c1cc2ccccc2s1 [Example 88, Benzo[b]thiophene-2-carboxylic acid (1-{1(R)-[(1-[1,3]dioxan-5-ylmethyl-piperidin-4-ylmethyl)carbamoyl]-2-phenyl-ethylcarbamoyl}-cyclopentyl)-amide TFA salt]
126 pM |  | O=C(NC1(C(=O)N[C@H](Cc2ccccc2)C(=O)NCC2CCN(CC3COCOC3)CC2)CCCC1)c1ccc2cc(Br)ccc2c1 [Example 89, 6-Bromo-naphthalene-2-carboxylic acid (1-{1(R)-[(1-[1,3]dioxan-5-ylmethyl-piperidin-4-ylmethyl)-carbamoyl]-2-phenyl-ethylcarbamoyl}-cyclopentyl)-amide]
1000 pM |  | O=C(NC1(C(=O)N[C@H](Cc2ccccc2)C(=O)NCC2CCN(CC3COCOC3)CC2)CCCC1)c1cc2cc(Cl)ccc2o1 [Example 91, 5-Chloro-benzofuran-2-carboxylic acid (1-{1(R)-[(1-[1,3]dioxan-5-ylmethyl-piperidin-4-ylmethyl)-carbamoyl]-2-phenyl-ethylcarbamoyl}-cyclopentyl)-amide]
79.4 pM |  | O=C(NC1(C(=O)N[C@H](Cc2ccccc2)C(=O)NCC2CCN(C3CCSCC3)CC2)CCCC1)c1cc2cc(Cl)ccc2o1 [Example 93, 5-Chloro-benzofuran-2-carboxylic acid [1-(2-phenyl-1(R)-{[1-(tetrahydro-thiopyran-4-yl)-piperidin-4-ylmethyl]-carbamoyl}-ethylcarbamoyl)cyclopentyl]-amide]
631 pM |  | O=C(NC1(C(=O)N[C@@H](CNCCC2CCN(C(=O)Cc3cccs3)CC2)Cc2ccccc2)CCCC1)c1cc2ccccc2s1 [Example 94, Benzo[b]thiophene-2-carboxylic acid [1-(1(R)benzyl-2-{2-[1-(thiophen-2-yl-acetyl)-piperidin-4-yl]-ethylamino}-ethylcarbamoyl)-cyclopentyl]-amide TFA salt]
1580 pM |  | NC1(C(=O)NCCNC(=O)[C@@H](Cc2ccccc2)NC(=O)C2(NC(=O)c3cc4ccccc4s3)CCCC2)CCCCC1 [Example 95]
100 pM |  | NC1(C(=O)N2CCC(CNC(=O)[C@@H](Cc3ccccc3)NC(=O)C3(NC(=O)c4cc5ccccc5s4)CCCC3)CC2)CCCCC1 [Example 96, Benzo[b]thiophene-2-carboxylic acid [1-(1(R)-{[1-(1-aminocyclohexanecarbonyl)-piperidin-4-ylmethyl]-carbamoyl}-2-phenyl-ethylcarbamoyl)-cyclopentyl]-amide TFA salt]
20 pM |  | NC1(C(=O)N2CCC(CNC(=O)[C@@H](Cc3ccccc3)NC(=O)C3(NC(=O)c4ccc5cc(Br)ccc5c4)CCCC3)CC2)CCCCC1 [Example 97, 6-Bromo-naphthalene-2-carboxylic acid [1-(1(R)-{[1-(1-amino-cyclohexanecarbonyl)-piperidin-4-ylmethyl]-carbamoyl}-2-phenyl-ethylcarbamoyl)-cyclopentyl]-amide]
316 pM |  | O=C(NC1(C(=O)N[C@H](Cc2ccccc2)C(=O)NCCC2CCN(C(=O)[C@H]3CCCN3)CC2)CCCC1)c1ccc2cc(Br)ccc2c1 [Example 99, 6-Bromo-naphthalene-2-carboxylic acid [1-(2-phenyl-1(R)-{2-[1-(pyrrolidine-2(R)-carbonyl)-piperidin-4-yl]-ethylcarbamoyl}-ethylcarbamoyl)-cyclopentyl]-amide]
1260 pM |  | O=C(NC1(C(=O)N[C@H](Cc2ccccc2)C(=O)NCCN2CCN(CC3CCOCC3)CC2)CCCC1)c1cc2ccccc2s1 [Example 101, Benzo[b]thiophene-2-carboxylic acid [1-(2-phenyl-1(R)-{2-[4-(tetrahydro-pyran-4-ylmethyl)-piperazin-1-yl]-ethylcarbamoyl}-ethylcarbamoyl)-cyclopentyl)-amide TFA salt]
501 pM |  | O=C(NC1(C(=O)N[C@H](Cc2ccccc2)C(=O)NCCCN2CCOCC2)CCCC1)c1cc2cc(Cl)ccc2o1 [Example 102, 5-Chloro-benzofuran-2-carboxylic acid {1-[1R-(3-morpholin-4-yl-propylcarbamoyl)-2-phenyl-ethylcarbamoyl]-cyclopentyl}-amide]
501 pM and 316 pM |  | O=C(NC1(C(=O)N[C@H](Cc2ccccc2)C(=O)NCCCN2CCOCC2)CCCC1)c1cc2cc(Br)ccc2o1 [Example 104, 5-Bromo-benzofuran-2-carboxylic acid {1-[1R-(3-morpholin-4-yl-propylcarbamoyl)2-phenyl-ethylcarbamoyl]-cyclopentyl}-amide]
